Results from patent US9676822B2, “Oligopeptidic compounds and uses thereof” (APIM THERAPEUTICS AS, priority 2008, dated 2017).
Where a SMILES comes first, the peptide text is derived from it. Where no end group is shown, it is not given here. Side-chain parts run from the residue outwards. The star is where a group is joined. 5FAM = O=C1OC2(c3ccc(O)cc3Oc3cc(O)ccc32)c2ccc(C(=O)*)cc21; Ahx = NCCCCCC(=O)O

How the values were obtained:
[1] = test system: EYFP and hABH21-10-EYFP expressing cells; assay: Flow analysis of the cell cycle after treatment with alkylating agents; format: cell-based
Text: (§1) This is surprising since TMZ is believed to induce mainly O^6methyl-G which is repair by a direct repair mechanism by MGMT, not involving removal of any bases or strand breaks. […] The cells were still arrested in G2/M on day 3.

[2] = test system: EYFP and hABH21-10-EYFP expressing cells; assay: Comet assay for DNA repair intermediates after treatment with alkylating agents; format: cell-based
Text: as §1

cell membranes = format: cell-based
Experimental: The cells were treated with different concentrations (2, 4 and 8 μM) of peptide for 1 hour. Next, propidium iodide (PI) (50 μg/ml in PBS) was added, this will stain DNA if the cell membranes are permeable. Analysis were done within the next 10 minutes on a FACS Canto flow cytometer (BD-Life Science).

HeLa cells [3] = assay: MTT assay, peptide with cytostatic drugs (MMS, Cisplatin); format: cell-based
Experimental: The effects of the peptides in sensitising cells to the effects of cytostatic drugs were investigated using an MTT assay and a clonogenic assay (CFU assay) as described below.
HeLa cells were seeded into 96 well plates (6000 cells/well) and incubated for 3 hours. Various doses of MMS and Cisplatin were added to the wells. After 24 hours peptides were added to the cells in serum free media and incubated for 1 h. Fresh media with cytostatic drugs was added and the cells were harvested after additional 24, 48 and 72 hours. MTT was added to the cells (3-(4,5-Dimethylthiazol-2-yl)-2,5-diphenyltetrazolium bromide) and OD was measured at 570 nm [52], and the average from at least 6 wells was used to calculate cell survival. Data is presented as growth from one representative experiment and has been reproduced at least 2 times.

HeLa cells [4] = test system: HeLa cells
Experimental: HeLa cells were seeded into 96 well plates (6000 cells/well) and incubated for 3 hours. Various doses of peptides were added to the wells in presence (filled diamonds) or absence of serum (filled square) in the media. After 1 h equal volume media with 10% or 20% serum (to serum free media) were added to the wells. The cells were incubated for 48 hours before measurement of cell survival by the MTT assay.
Cytotoxicity of the peptides was investigated by an MTT assay as described below, using the peptides alone, in the absence of cytostatic drugs. Cytotoxicity data was also obtained from controls used in the cytostatic drug MTT assays (controls with peptide but without cytostatic drug), where the control peptides were followed for longer (4 days).
Cytotoxicity of the peptides after 48 hours are measured using the MTT assay. HeLa cells were seeded into 96 well plates (6000 cells/well) and incubated for 3 hours. Various doses of peptides were added to the wells in presence or absence of serum in the media. After 1 h equal volume media with 1× or 2× (to serum free media) were added and the cells incubated for 48 hours before addition of MTT (see above).

[5] = test system: HaCaT (spontaneously transformed keratinocyte) cells; assay: Cell survival assay of HaCaT cells stably expressing the construct; format: cell-based
Experimental: (§2) HeLa and HaCaT cells were seeded into 96 well plates (4000 cells/well) and incubated for 4 hours. […] The U2OS cells were exposed to MMS and TMZ only. The cells were exposed continuously until harvest. Cells were harvested every day for 4 days using the MTT assay (Mosmann, 1983). OD was measured at 570 nm, and the average from at least 6 wells was used to calculate cell survival. Data presented is growth from one representative experiment and has been reproduced at least 2 times.

PCNA [6] = target: T1, PCNA (Homo sapiens, UniProt P12004); assay: FRET measurement with ECFP-PCNA; format: cell-based; settings: positive FRET: distance between tags less than 100 Å
T1 construct: endogenous in cells; host or cells: HeLa cells stably expressing the EYFP fusion constructs; fractionated cell extracts
T1 sequence (P12004 whole entry, the tested form may be a part): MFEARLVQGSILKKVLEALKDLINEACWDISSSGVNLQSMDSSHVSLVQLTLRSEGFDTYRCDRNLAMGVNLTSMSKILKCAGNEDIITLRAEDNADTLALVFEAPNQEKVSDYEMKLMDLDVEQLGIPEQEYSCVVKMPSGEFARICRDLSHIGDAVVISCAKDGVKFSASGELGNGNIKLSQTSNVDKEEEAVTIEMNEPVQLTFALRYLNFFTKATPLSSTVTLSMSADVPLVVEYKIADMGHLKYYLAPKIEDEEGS
Text: Fluorescent resonance energy transfer (FRET) occurs if the tags (EYFP and ECFP) are less than 100 Å (10 nm) apart. We detected FRET using the sensitised emission method, measuring acceptor (EYFP) emission upon donor (ECFP) excitation. We had FRET when the intensity of emitted light from EYFP after excitation of the ECFP fluorochrome was stronger than the light emitted by ECFP or EYFP-tagged proteins alone, after excitation with the EYFP and ECFP lasers respectively (bleed through), given by the equation: FRET=I2−I1 (ID2/ID1)−I3 (IA2/IA3) is >0. FRET was normalised for expression levels using the equation: NFRET=FRET/(I1×I3)^1/2. NFRET was calculated from mean intensities (I) within a region of interest (ROI) containing more than 25 pixels where all pixels had intensities below 250 and the average intensities were between 100 and 200 for both the donor and the acceptor constructs. Channel 1 (ECFP) and 3 (EYFP) were measured as described above for imaging, and channel 2 (FRET) was excitated with 2=458 nm and detected at λ=530-600 nm. ID1, D2, D3 and IA1, A2, A3 were determined for cells transfected with ECFP and EYFP constructs only, with same settings and same fluorescence intensities as co-transfected cells (I1 and I3). […]
To examine the degree of proximity of hABH2 and PCNA, fluorescence resonance energy transfer (FRET) was measured.

PCNA [7] = target: T1, PCNA; assay: Co-immunoprecipitation and western analysis of endogenous PCNA; format: binding; settings: anti-GFP immunoprecipitation, extracts of stably expressing cells
Experimental: HeLa (cervical cancer) and HaCaT (spontaneously transformed keratinocyte) cells stably expressing the constructs of interest were prepared by transfection (by Fugene 6) followed by cell sorting or cloning by dilution, and prolonged culturing in selective (using geneticin, G418, 400 μg/ml, Invitrogen) Dulbecco's modified Eagle's Medium high glucose 4.5 g/l (DMEM) (BioWhittaker®) supplemented with 10% Fetal Calf Serum (FCS), Amphotericin B (250 μg/ml, Sigma-Aldrich), gentamycin (100 μg/ml, Gibco) and glutamine (1 mM, BioWhittaker®). The cells were cultured at 37° C. in 5% carbon dioxide, humidified atmosphere. Fractionated cell extracts from HeLa were prepared by resuspending the cell pellets in 1× packed cell volume (PCV) in buffer I (10 mM Tris-HCl, pH 8.0 and 50 mM KCl) and 1×PCV in buffer II (10 mM Tris-HCl, 100 mM KCl, 20% glycerol, 0.5% Nonidet P-40, 10 mM EGTA, 10 mM MgCl2, 1 mM DTT, 1× Complete protease inhibitor (Roche), phosphates inhibitor cocktail (PIC I and PIC II, Sigma). Cells were incubated under constant shaking for 30 min at 4° C. The supernatant (soluble fraction) was harvested. The pellet (containing nuclei) was resuspended in 1×PCV of buffer III (10 mM Tris-HCl, pH 8.0 and 100 mM KCl) and 1×PCV buffer II, and briefly sonicated until all nuclei were disrupted. […]

PCNA [8] = target: T1, PCNA; assay: Co-localisation of EYFP fusion constructs with ECFP-PCNA by confocal imaging; format: cell-based; settings: co-expressed with ECFP-PCNA
Experimental: Confocal imaging and FRET measurements Live HeLa cells were examined 16-24 hours after transient transfection (by Fugene 6 (Roche Inc.) according to the manufacturer's recommendations) of ECFP and EYFP fusion constructs. Fluorescent images were acquired using a Zeiss LSM 510 Meta laser scanning microscope equipped with a Plan-Apochromat 63×/1.4 oil immersion objective. Enhanced cyan fluorescent protein (ECFP) was excited at λ=458 nm and detected at λ=470-500 nm and enhanced yellow fluorescent protein (EYFP) was excited at λ=514 nm and detected at λ=530-600 nm, using consecutive scans. The thickness of the slice was 1 μm.
PCNA tagged with cyan fluorescent protein (ECFP) was co-expressed with various hABH2 deletion constructs fused with yellow fluorescent protein (EYFP). […] (FIG. 1).

HeLa cells [9] = assay: Cell survival assay (MTT) of HeLa cells expressing the construct, with alkylating agents; format: cell-based
Experimental: as §2, with “times. […] TZM is reported to be an O^6G methylating agent, while MMC causes interstrand cross links via N-alkylation of guanine in CpG's.” for “times.”

[10] = HeLa cells expressing the construct

O=NN(CCCl)C(=O)NCCCl [BCNU, 1,3-Bis(2-chloroethyl)-1-nitrosourea]
cell cycle effect [1]: transient G2/M arrest on day 1 | DNA repair intermediates (abasic sites, SSB, DSB) [2]: very low levels of repair intermediates

CC[C@H](C)[C@H](NC(=O)[C@H](CCCCN)NC(=O)[C@@H](NC(=O)[C@H](CCC(N)=O)NC(=O)[C@H](CCCNC(=N)N)NC(=O)[C@H](CC(C)C)NC(=O)[C@@H](NC(=O)[C@H](CCCCN)NC(=O)[C@H](CCCNC(=N)N)NC(=O)[C@H](CCCCN)NC(=O)[C@H](CCCCN)NC(=O)[C@H](CCCCN)NC(=O)[C@@H]1CCCN1C(=O)[C@H](CCC(N)=O)NC(=O)[C@H](C)NC(=O)CNC(=O)[C@H](CCCCN)NC(=O)[C@@H](NC(=O)[C@H](CC(C)C)NC(=O)[C@H](Cc1c[nH]c2ccccc12)NC(=O)[C@H](CCCNC(=N)N)NC(=O)[C@H](CC(=O)O)NC(=O)[C@@H](N)CCSC)C(C)C)C(C)C)[C@@H](C)CC)C(=O)N[C@@H](Cc1c[nH]c2ccccc12)C(=O)N[C@@H](Cc1ccccc1)C(=O)N[C@@H](CCC(N)=O)C(=O)N[C@@H](CC(N)=O)C(=O)N[C@@H](CCCNC(=N)N)C(=O)N[C@@H](CCCNC(=N)N)C(=O)N[C@@H](CCSC)C(=O)N[C@@H](CCCCN)C(=O)N[C@@H](Cc1c[nH]c2ccccc12)C(=O)N[C@@H](CCCCN)C(=O)N[C@@H](CCCCNC(=O)CCCCCNC(=O)c1ccc2c(c1)C(=O)OC21c2ccc(O)cc2Oc2cc(O)ccc21)C(=O)NCC(=O)O [MDR2] (H-MDRWLVKGAQPKKKRKVLRQIKIWFQNRRMKWKK([Ahx-5FAM])G-OH)
membrane toxicity (cell membranes): membrane toxicity is low

COS(C)(=O)=O [MMS, methyl methanesulfonate]
cell cycle effect [1]: S-phase arrest | DNA repair intermediates (abasic sites, SSB, DSB) [2]: highest levels of DNA repair intermediates after 4 hours

Cn1nnc2c(C(N)=O)ncn2c1=O [TMZ, 4-methyl-5-oxo-2,3,4,6,8-pentazabicyclo [4.3.0] nona-2,7,9-triene-9-carboxamide]
cell cycle effect [1]: arrested in G2/M up to day 3 | DNA repair intermediates (abasic sites, SSB, DSB) [2]: highest levels of repair intermediates after 4 hours

Ac-MDRWLVKWKKKRKIRRRRRRRRRRR [MDR26-72-0]
activity in the MTT assay (HeLa cells [3]): good activity

MDRWLVKRIWKKKRKIIRQIKIWFQNRRMKWKK-Ahx5-FAM)G (not fully specified (residue 33, C-terminus); printed as MDRWLVKRIWKKKRKIIRQIKIWFQNRRMKWKK-Ahx5-FAM)G; also: Ahx5-FAM label and G at C-terminal end, arrangement unclear) [MDR26-8]
Cytotoxicity (HeLa cells [4]): +

hABH21-10-EYFP: the 10 N-terminal amino acids of hABH2 fused to EYFP, expressed in cells (MDRFLVKGAQ; not fully specified (C-terminus); also: fused to EYFP, expressed in cells)
sensitivity to MMS and TMZ [5]: hypersensitive to MMS and TMZ | FRET with ECFP-PCNA (PCNA [6]): positive FRET | pull-down of endogenous PCNA (PCNA [7]): pulled down | co-localisation with PCNA in replication foci (PCNA [8]): sufficient for co-localisation with PCNA | sensitisation to MMS (HeLa cells [9]; [10]): sensitised HeLa cells to treatment with MMS | sensitisation to the other cytostatic agents (BCNU, TZM, MMC) (HeLa cells [9]; [10]): sensitised HeLa cells to all of the other cytostatic agents tested | growth rate of untreated cells (HeLa cells [9]; over-expression, no cytostatic agent): did not interfere with the growth rate of untreated cells
